Data reported in patent US20140005271A1, “PHARMACEUTICAL COMPOSITION FOR PREVENTING OR TREATING INFLAMMATORY DISEASES OR INFECTIOUS DISEASES, CONTAINING m-3M3FBS, WHICH IS ACTIVATOR OF PHOSPHOLIPASE C, AS ACTIVE INGREDIENT” (priority 2011, published 2014).

Assays:
[1] = test system: mouse neutrophils with opsonized E. coli; experiment: Microbicidal action of neutrophils on ingested opsonized E. coli; format: cell-based
Experimental: Neutrophils were incubated for 1 hour at a 13-mm plastic cover slip on a 60-mm plastic petri dish (1×10^6 neutrophils/cover slip) at 37° C. Unattached neutrophils were removed by PBS washing, and the attached neutrophils were incubated with 10^6 of opsonized E. coli for 20 minutes. Microbes ingested by neutrophils were incubated for 30 minutes at various concentrations of m-3M3FBS or vehicles, and changes of the microbes before and after incubation were examined. A percentage of dead microbes was calculated by 100×(1−the number of CFU after m-3M3FBS stimulation/the number of CFU before m-3M3FBS stimulation).

[2] = test system: mouse neutrophils; experiment: Production of H2O2 in neutrophils; format: cell-based
Experimental: Neutrophils of mice were isolated from peripheral blood using Histopaque-1077 solvent (Sigma), and neutrophils isolated from a normal mouse were stimulated by treating various concentrations of m-3M3FBS for 10 minutes in the presence of cytochalasin B (5 μm). […] H2O2 obtained from a supernatant was analyzed using H2O2 Molecular Probes.

[3] = test system: CLP mouse models; experiment: Survival/mortality of CLP (cecal ligation and puncture) sepsis mice; format: in vivo; conditions: for effect on the m-3M3FBS-induced survival rate: treated within the period of injecting m-3M3FBS, 1.5 mg/kg, FIG. 1C
Experimental: (§1) Male WT ICR mice were used as test models. All tests involving animals were performed according to the guidelines, and received the approval of Institutional Review Committee for Animal Care and Use from Dong-a University. For cecal ligation and puncture (CLP), the mice were anesthetized by intraperitoneal injection of pentothal sodium (50 mg/kg), and the cecum was exposed through midline incision of the abdomen. The cecum was ligated at a terminal end of the ileocecal valve, and the surface was perforated twice, or once to measure cytokine production using a 22-gauge needle, and the abdomen was closed. The control (sham) CLP mice underwent the same process as described above, but the cecum was not ligated or punctured.

[4] = test system: thymocytes and splenocytes; experiment: CLP-induced apoptosis of thymocytes and splenocytes (H&E staining, counting of living cells); format: in vivo, mouse; conditions: 1.5 mg/kg; 24 hours; FIGS. 4A and B
Experimental: as §1

[5] = test system: cytokines in the peritoneal fluid; experiment: CLP-induced cytokines in peritoneal fluid by ELISA; format: in vivo, mouse; conditions: 1.5 mg/kg, 4 to 72 hours after CLP
Experimental: To detect production of CLP-inducing cytokines in peritoneal lavage fluid, m-3M3FBS was treated 2, 14, 26, or 38 hours after CLP. The peritoneal lavage fluid was harvested at various points of time from 4 to 72 hours after the CLP, and expression of cytokines in the peritoneal fluid was detected by ELISA (BD Biosciences Pharmingen).

[6] = test system: splenocytes; experiment: TUNEL assay of CLP-induced apoptosis; format: in vivo, mouse; conditions: 1.5 mg/kg; FIG. 4C
Experimental: The TUNEL assay was performed on tissue fragments embedded in paraffin, and the fragments were subjected to permeation of Triton X-100 at 4° C. for 2 minutes, and immersed in a TdT enzyme and a digoxigenin-dUTP reaction buffer (TUNEL) reagent for 60 minutes at 37° C. A percentage of apoptotic cells (TUNEL-positive cells) was determined by counting 500 splenocytes, which were observed using an optical microscope.

[7] = test system: splenocytes of mice; experiment: Direct in vitro production of IFN-γ and IL-12 by ELISA; format: cell-based, mouse; conditions: various concentrations, 3 hours
[8] = test system: mouse neutrophils; experiment: LPS-induced proinflammatory cytokine secretion in neutrophils by ELISA; format: cell-based; conditions: LPS 100 ng/ml, m-3M3FBS 10 μM, versus LPS alone
Experimental: Mouse neutrophils (3×10^6 cells/0.3 ml) were incubated in a 24-well plate containing 10% FBS-contained RPMI 1640 medium, and placed in 5% CO2 incubator at 37° C. Then, the neutrophils were incubated with LPS (100 ng/ml) for 6 hours in the presence or absence of m-3M3FBS (10 μM). The LPS (100 ng/ml) was treated to the cells after 30 minutes, the cell-free supernatant was harvested by centrifugation, and the production of IL-1 or TNF-α was detected by ELISA (BD Biosciences Pharmingen) according to the manufacturer's instructions.

[9] = test system: caspase-3; experiment: Immunostaining of fragmented caspase-3 in splenocytes of CLP mice; set-up: species or system mouse; conditions: 1.5 mg/kg in vivo; FIG. 4D
Experimental: Immunostaining was performed on the paraffin-embedded tissue fragments. The fragments were incubated with primary antibodies (Cell Signal transduction) in response to fragmented capase-3, and stained with fluorescent pigment-fused secondary antibodies.

[10] = test system: lung of the CLP mouse; experiment: Inflammation of the lung in CLP mice (hematoxylin and eosin staining, W/D weight ratio); format: in vivo; conditions: 1.5 mg/kg
Experimental: The degree of pulmonary edema was identified by measuring a wet-to-dry (W/D) ratio of the lung. The wet weight of the harvested cells was measured, and the cells were placed in an oven at 60° C. for 48 hours, and the dry weight of the cells was measured, thereby obtaining the W/D ratio.
2 hours after the mice underwent CLP, PBS or m-3M3FBS was administered at a concentration of 1.5 mg/kg. 24 hours after the surgery, the mice were euthanized, and the lung was fixed, cut, and stained with hematoxylin and eosin to perform morphological analysis.

[11] = test system: bacteria in the peritoneal fluid; experiment: In vivo microbicidal action: bacterial colonies (CFU) in peritoneal lavage fluid after CLP; set-up: species or system mouse; conditions: 1.5 mg/kg; 24 hours after CLP; FIG. 3A
Experimental: 24 hours after the CLP, peritoneal lavage fluid was harvested, and was incubated overnight in a blood-agar base plate (Trypticase Soy Agar Deeps, Becton Dickinson) at 37° C. CFUs were estimated by counting bacteria colonies formed in the blood-agar base plate (Trypticase Soy Agar Deeps, Becton Dickinson).

COc1ccc2c(c1)CC[C@@H]1[C@@H]2CC[C@]2(C)[C@@H](NCCCCCCN3C(=O)C=CC3=O)CC[C@@H]12 [U-73122, reference compound]
effect on m-3M3FBS-induced microbicidal action ([1]; neutrophils preincubated with the inhibitor (10 μM), then m-3M3FBS added, FIG. 3C): completely prevented | effect on m-3M3FBS-induced production of H2O2 ([2]; neutrophils preincubated with the inhibitor (10 μm), FIG. 3E): significantly decreased | effect on the m-3M3FBS-induced survival rate [3]: completely prevented the increase in the m-3M3FBS-induced survival rate

COc1ccc2c(c1)CC[C@@H]1[C@@H]2CC[C@]2(C)[C@@H](NCCCCCCN3C(=O)CCC3=O)CC[C@@H]12 [U-73343, reference compound]
effect on the m-3M3FBS-induced survival rate [3]: did not

Cc1cc(C)c(S(=O)(=O)Nc2cccc(C(F)(F)F)c2)c(C)c1 [m-3M3FBS]
CLP-induced apoptosis of the thymocytes and splenocytes [4]: significantly inhibited | level of IL-1β in peritoneal fluid ([5]; FIG. 5A): significantly decreased | level of TNF-α in peritoneal fluid ([5]; FIG. 5B): significantly decreased | level of IL-12p70 in peritoneal fluid ([5]; FIG. 5C): significantly increased | level of IFN-γ in peritoneal fluid ([5]; FIG. 5D): significantly increased | CLP-induced apoptosis by DNA fragmentation assay (TUNEL) [6]: significantly inhibited | microbicidal action of the neutrophils ([1]; 1 to 50 μm m-3M3FBS, FIG. 3B): significantly increased in a direction proportional to the concentration | production of H2O2 in the neutrophils ([2]; 1 to 50 μm m-3M3FBS, FIG. 3D): increased the production of H2O2 in the neutrophils in a direction proportional to the concentration | production of IFN-γ ([7]; FIG. 6D): increased | production of IL-12 ([7]; FIG. 6E): increased | survival rate by injection frequency ([3]; 1.5 mg/kg 2 hours after CLP, further three or four times at 12 hour intervals, FIG. 1B): significantly improved | survival rate of the mice compared to vehicle-injected control ([3]; 0.9 or 1.5 mg/kg injected, FIG. 1A): significantly increased | mortality of the mice after CLP ([3]; various concentrations injected after CLP, FIG. 1A): significant decrease in the mortality | level of IL-1β after LPS treatment ([8]; FIG. 6A): decreased | level of TNF-α after LPS treatment ([8]; FIG. 6B): decreased | level of IL-6 after LPS treatment ([8]; FIG. 6C): decreased | activation of CLP-induced caspase-3 [9]: significantly inhibited | W/D weight ratio of the lung ([10]; 24 hours after CLP, FIG. 2B): significantly decreased | lung inflammation symptoms (congestion, extensive thrombotic lesions) ([10]; hematoxylin and eosin staining 24 hours after surgery, FIG. 2A): significantly decreased | decrease in number of colonies of bacteria in the abdominal cavity [11]: 55%
